Data reported in paper PMC3156243, “Properties and Crystal Structure of Methylenetetrahydrofolate Reductase from Thermus thermophilus HB8” (PLoS ONE, 2011).

Biological target: T1, MTHFR (methylenetetrahydrofolate reductase) (Thermus thermophilus, UniProt Q5SLG6)
T1 construct: gene TTHA0327
Assay: biochemical

T1 sequence (Q5SLG6 1-296): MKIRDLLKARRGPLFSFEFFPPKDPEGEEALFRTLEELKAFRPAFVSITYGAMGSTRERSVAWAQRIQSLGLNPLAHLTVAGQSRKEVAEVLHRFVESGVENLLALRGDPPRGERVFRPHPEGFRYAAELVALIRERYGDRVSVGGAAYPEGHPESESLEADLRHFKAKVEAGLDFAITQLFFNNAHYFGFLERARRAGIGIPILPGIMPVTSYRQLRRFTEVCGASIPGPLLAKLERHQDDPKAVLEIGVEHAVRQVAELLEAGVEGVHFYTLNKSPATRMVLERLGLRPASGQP

Ki: 15 ± 6 µM
SMILES: CN1c2c(nc(N)[nH]c2=O)NC[C@@H]1CNc1ccc(C(=O)N[C@@H](CCC(=O)O)C(=O)O)cc1 (mixture of isomers) [(6S)-5-CH3-H4folate]
